# Results from PubChem BioAssay AID180 (DTP/NCI, 2004).
# “And” between values parts separate entries of the source, which are not always exact repeats. Identical values can stand only once.
# Tested on: BDF1 mice, Adenocarcinoma 755 s.c., tumor weight T/C
# Assay: NCI In Vivo Anticancer Drug Screen. Data for tumor model Adenocarcinoma 755 (subcutaneous) in B6D2F1 (BDF1) mice
# Settings: endpoint: mean tumor weight, higher = larger tumour
# How it was run: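 Transplantable tumor implanted; mice dosed with compound or vehicle; survival or tumor size recorded; ratio of treated to vehicle control reported.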
# [1] = dose: 6.25 mg/kg/injection, schedule: Q01DX011 (ip), vehicle: carboxymethylcellulose (CMC)
# [2] = dose: 12.5 mg/kg/injection, schedule: Q01DX011 (ip), vehicle: carboxymethylcellulose (CMC)
# [3] = dose: 25.0 mg/kg/injection, schedule: Q01DX011 (ip), vehicle: carboxymethylcellulose (CMC)
# [4] = dose: 50.0 mg/kg/injection, schedule: Q01DX011 (ip), vehicle: carboxymethylcellulose (CMC)
# [5] = dose: 100.0 mg/kg/injection, schedule: Q01DX011 (ip), vehicle: water
# [6] = dose: 200.0 mg/kg/injection, schedule: Q01DX011 (ip), vehicle: water
smiles,measurement,setting,value
COc1ccc(C[n+]2cc([O-])on2)cc1,T/C,"dose: 0.39 mg/kg/injection, schedule: Q01DX011 (ip), vehicle: carboxymethylcellulose (CMC)",75 % of control
same,T/C,"dose: 0.78 mg/kg/injection, schedule: Q01DX011 (ip), vehicle: carboxymethylcellulose (CMC)",80 % of control
same,T/C,"dose: 1.56 mg/kg/injection, schedule: Q01DX011 (ip), vehicle: carboxymethylcellulose (CMC)",63 % of control
same,T/C,"dose: 3.0 mg/kg/injection, schedule: Q01DX011 (ip), vehicle: carboxymethylcellulose (CMC)",70 % of control
same,T/C,"dose: 6.0 mg/kg/injection, schedule: Q01DX011 (ip), vehicle: carboxymethylcellulose (CMC)",89 % of control
same,T/C,[1],57 % of control
same,T/C,"dose: 12.0 mg/kg/injection, schedule: Q01DX011 (ip), vehicle: carboxymethylcellulose (CMC)",52 % of control
same,T/C,[2],51 % of control
same,T/C,"dose: 24.0 mg/kg/injection, schedule: Q01DX011 (ip), vehicle: carboxymethylcellulose (CMC)",67 % of control
Nc1nc(=S)c2[nH]cnc2[nH]1.[Cu+2],T/C,"dose: 0.62 mg/kg/injection, schedule: Q01DX011 (ip), vehicle: carboxymethylcellulose (CMC)",98 % of control
same,T/C,"dose: 1.25 mg/kg/injection, schedule: Q01DX011 (ip), vehicle: carboxymethylcellulose (CMC)",83 % of control
same,T/C,"dose: 2.5 mg/kg/injection, schedule: Q01DX011 (ip), vehicle: carboxymethylcellulose (CMC)",105 % of control
same,T/C,"dose: 5.0 mg/kg/injection, schedule: Q01DX011 (ip), vehicle: carboxymethylcellulose (CMC)",59 % of control
CCC(C)Cn1cnc2c(SCc3ccccc3F)nc(N)nc21 (stereo not given),T/C,"dose: 20.0 mg/kg/injection, schedule: Q01DX011 (ip), vehicle: methylcellulose (MC)",64 % of control
same,T/C,"dose: 65.0 mg/kg/injection, schedule: Q01DX011 (ip), vehicle: methylcellulose (MC)",76 % of control
same,T/C,"dose: 200.0 mg/kg/injection, schedule: Q01DX011 (ip), vehicle: methylcellulose (MC)",30 % of control
CCCSc1nc(N)nc2c1ncn2C1OC(CO)C(O)C1O (stereo not given),T/C,"dose: 3.1 mg/kg/injection, schedule: Q01DX011 (ip), vehicle: methylcellulose (MC)",33 % of control
same,T/C,"dose: 6.25 mg/kg/injection, schedule: Q01DX011 (ip), vehicle: methylcellulose (MC)",4 % of control
same,T/C,"dose: 12.5 mg/kg/injection, schedule: Q01DX011 (ip), vehicle: methylcellulose (MC)",2 % of control
Clc1ncnc2c1ncn2C1CCCCC1,T/C,[1],91 % of control
same,T/C,[2],73 % of control
same,T/C,[3],81 % of control
CSc1ncc(Br)c(Nc2ccc(Cl)c(Cl)c2)n1,T/C,"dose: 15.0 mg/kg/injection, schedule: Q01DX011 (ip), vehicle: methylcellulose (MC)",57 % of control
same,T/C,"dose: 31.0 mg/kg/injection, schedule: Q01DX011 (ip), vehicle: methylcellulose (MC)",66 % of control
same,T/C,"dose: 62.0 mg/kg/injection, schedule: Q01DX011 (ip), vehicle: methylcellulose (MC)",78 % of control
same,T/C,"dose: 125.0 mg/kg/injection, schedule: Q01DX011 (ip), vehicle: methylcellulose (MC)",67 % of control
same,T/C,"dose: 250.0 mg/kg/injection, schedule: Q01DX011 (ip), vehicle: methylcellulose (MC)",62 % of control
O=C([O][Hg][CH2]C1CC(O)CC([CH2][Hg][O]C(=O)c2ccccc2)O1)c1ccccc1 (stereo not given),T/C,[3],83 % of control
same,T/C,[4],33 % of control
C=CCn1cnc2c(=S)nc[nH]c21,T/C,"dose: 0.37 mg/kg/injection, schedule: Q01DX011 (ip), vehicle: saline",49 % of control
same,T/C,"dose: 0.5 mg/kg/injection, schedule: Q01DX011 (ip), vehicle: saline",82 % of control
same,T/C,"dose: 0.75 mg/kg/injection, schedule: Q01DX011 (ip), vehicle: saline",72 % of control
same,T/C,"dose: 1.0 mg/kg/injection, schedule: Q01DX011 (ip), vehicle: saline",48 % of control
same,T/C,"dose: 2.0 mg/kg/injection, schedule: Q01DX011 (ip), vehicle: alkali diluted with saline",7 % of control
same,T/C,"dose: 2.25 mg/kg/injection, schedule: Q01DX011 (ip), vehicle: alkali diluted with saline",3 % of control
same,T/C,"dose: 2.75 mg/kg/injection, schedule: Q01DX011 (ip), vehicle: alkali diluted with saline",5 % of control
same,T/C,"dose: 3.0 mg/kg/injection, schedule: Q01DX011 (ip), vehicle: alkali diluted with saline",9 % of control
same,T/C,"dose: 6.0 mg/kg/injection, schedule: Q01DX011 (ip), vehicle: alkali diluted with saline",1 % of control
same,T/C,"dose: 12.5 mg/kg/injection, schedule: Q01DX011 (ip), vehicle: alkali diluted with saline",2 % of control
CC(C)=NOC(N)=O,T/C,[5],122 % of control
same,T/C,[6],106 % of control
CC12CCC3C(CCC4CC=CCC43C)C1CCC2=O (stereo not given),T/C,"dose: 62.55 mg/kg/injection, schedule: Q01DX011 (sc), vehicle: steriod suspending solution",90 % of control
same,T/C,"dose: 125.0 mg/kg/injection, schedule: Q01DX011 (sc), vehicle: steriod suspending solution",99 % of control
same,T/C,"dose: 250.0 mg/kg/injection, schedule: Q01DX011 (sc), vehicle: steriod suspending solution",60 % of control
same,T/C,"dose: 500.0 mg/kg/injection, schedule: Q01DX011 (sc), vehicle: steriod suspending solution",84 % of control
O=C(CCBr)N1CN(C(=O)CCBr)CN(C(=O)CCBr)C1,T/C,"dose: 57.0 mg/kg/injection, schedule: Q01DX011 (ip), vehicle: methylcellulose (MC)",117 % of control
same,T/C,"dose: 113.0 mg/kg/injection, schedule: Q01DX011 (ip), vehicle: methylcellulose (MC)",97 % of control
same,T/C,"dose: 225.0 mg/kg/injection, schedule: Q01DX011 (ip), vehicle: methylcellulose (MC)",80 % of control
O=S(=O)(NCc1ccccc1)c1ncnc2nc[nH]c12,T/C,[2],73 % of control
same,T/C,[3],3 % of control
same,T/C,[4],1 % of control
O=C(CCBr)N1CCN(C(=O)CCBr)CC1,T/C,"dose: 5.6 mg/kg/injection, schedule: Q01DX011 (ip), vehicle: methylcellulose (MC)",103 % of control
same,T/C,"dose: 11.25 mg/kg/injection, schedule: Q01DX011 (ip), vehicle: methylcellulose (MC)",89 % of control and 94 % of control
same,T/C,"dose: 15.0 mg/kg/injection, schedule: Q01DX011 (ip), vehicle: carboxymethylcellulose (CMC)",56 % of control
same,T/C,"dose: 22.5 mg/kg/injection, schedule: Q01DX011 (ip), vehicle: methylcellulose (MC)",40 % of control and 65 % of control
same,T/C,"dose: 30.0 mg/kg/injection, schedule: Q01DX011 (ip), vehicle: carboxymethylcellulose (CMC)",37 % of control
same,T/C,"dose: 45.0 mg/kg/injection, schedule: Q01DX011 (ip), vehicle: methylcellulose (MC)",51 % of control
same,T/C,"dose: 60.0 mg/kg/injection, schedule: Q01DX011 (ip), vehicle: carboxymethylcellulose (CMC)",24 % of control
same,T/C,"dose: 90.0 mg/kg/injection, schedule: Q01DX011 (ip), vehicle: methylcellulose (MC)",12 % of control
CN(C)N=Nc1ccc(-c2ccc(N=NN(C)C)cc2)cc1,T/C,"dose: 17.5 mg/kg/injection, schedule: Q01DX011 (ip), vehicle: other",92 % of control
same,T/C,"dose: 31.2 mg/kg/injection, schedule: Q01DX011 (ip), vehicle: other",56 % of control
same,T/C,"dose: 35.0 mg/kg/injection, schedule: Q01DX011 (ip), vehicle: other",72 % of control
same,T/C,"dose: 50.0 mg/kg/injection, schedule: Q01DX011 (ip), vehicle: water",70 % of control
same,T/C,"dose: 62.5 mg/kg/injection, schedule: Q01DX011 (ip), vehicle: other",46 % of control
same,T/C,"dose: 70.0 mg/kg/injection, schedule: Q01DX011 (ip), vehicle: other",75 % of control
same,T/C,[5],39 % of control
same,T/C,"dose: 125.0 mg/kg/injection, schedule: Q01DX011 (ip), vehicle: other",32 % of control
same,T/C,"dose: 140.0 mg/kg/injection, schedule: Q01DX011 (ip), vehicle: other",40 % of control
same,T/C,"dose: 150.0 mg/kg/injection, schedule: Q01DX011 (ip), vehicle: water",46 % of control
same,T/C,[6],61 % of control
COC(=O)[C@@H]1c2cc3c(c(O)c2[C@@H](OC2OC(C)C(OC)C(C)(OC)C2OC)C[C@]1(C)O)C(=O)c1c(O)cc2c(c1C3=O)O[C@H]1O[C@]2(C)[C@H](O)[C@@H](N(C)C)[C@@H]1O (stereo not given in full),T/C,"dose: 0.2 mg/kg/injection, schedule: Q01DX011 (ip), vehicle: carboxymethylcellulose (CMC)",83 % of control
same,T/C,"dose: 0.3 mg/kg/injection, schedule: Q01DX011 (ip), vehicle: carboxymethylcellulose (CMC)",89 % of control
same,T/C,"dose: 0.3 mg/kg/injection, schedule: Q01DX011 (ip), vehicle: saline",179 % of control
same,T/C,"dose: 0.44 mg/kg/injection, schedule: Q01DX011 (ip), vehicle: carboxymethylcellulose (CMC)",57 % of control
same,T/C,"dose: 0.44 mg/kg/injection, schedule: Q01DX011 (ip), vehicle: saline",113 % of control
same,T/C,"dose: 0.67 mg/kg/injection, schedule: Q01DX011 (ip), vehicle: carboxymethylcellulose (CMC)",99 % of control
same,T/C,"dose: 1.0 mg/kg/injection, schedule: Q01DX011 (ip), vehicle: carboxymethylcellulose (CMC)",103 % of control
NC1=CC(=O)c2cccnc2C1=O,T/C,"dose: 6.5 mg/kg/injection, schedule: Q01DX011 (ip), vehicle: water",111 % of control
same,T/C,"dose: 10.0 mg/kg/injection, schedule: Q01DX011 (ip), vehicle: water",87 % of control
same,T/C,"dose: 15.0 mg/kg/injection, schedule: Q01DX011 (ip), vehicle: water",69 % of control
